Measurements reported in the supplement of paper PMC4862054.
Where “and” joins values, the source holds several entries; their conditions need not be identical. Equal entries are not always repeated.

Legend:
Settings in all cases: incubation time: 72 h
HDQ-P1 [1] = test: normalised viability (% of control), CellTiter-Blue; higher = more viable cells (about 100 = DMSO control)
Protocol: (§1)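 DSRT, CellTiter-Blue viability, 72 h incubation. Signal is normalised to DMSO and benzethonium chloride controls. Value is the normalised response at dose 8.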

CAL-51 [2] = test: as above
Protocol: as §1

MDA-MB-436 = test: drug sensitivity score (DSS), CellTox Green (DSS (AUC-based score)); higher = stronger drug effect (viability inhibition or cytotoxicity); extreme values may be limits of the assay
Procedure, shortened: (§2)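 The drug sensitivity score was computed from the area under the fitted dose-response curve. Breast cancer cell lines in 20 µl suspension went into 384-well plates holding compound at 5 concentrations (10-fold steps over a 10,000-fold, compound-specific range) for 72 h of incubation. CellTox Green fluorescence (485/520 nm) was read before CellTiter-Glo luminescence, the latter after 10 min at room temperature, and each plate was normalised to 0.1 % DMSO and a positive kill control.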

CAL-120 = test: as above
Procedure, shortened: as §2

MFM-223 = test: as above
Procedure, shortened: as §2

MDA-MB-453 [3] = test: as above
Procedure, shortened: as §2

MCF-10A = test: as above
Procedure, shortened: as §2

MDA-MB-468 = test: as above
Procedure, shortened: as §2

BT-474 = test: as above
Procedure, shortened: as §2

BT-549 = test: as above
Procedure, shortened: as §2

DU-4475 [4] = test: as above
Procedure, shortened: as §2

HCC1937 = test: as above
Procedure, shortened: as §2

Hs578T = test: as above
Procedure, shortened: as §2

HCC1599 = test: as above
Procedure, shortened: as §2

CAL-148 [5] = test: as above
Procedure, shortened: as §2

CAL-85-1 [6] = test: as above
Procedure, shortened: as §2

MDA-MB-231 = test: as above
Procedure, shortened: as §2

HCC1143 = test: as above
Procedure, shortened: as §2

HDQ-P1 [7] = test: as above
Procedure, shortened: as §2

CAL-51 [8] = test: as above
Procedure, shortened: as §2

MDA-MB-453 [9] = test: normalised viability (% of control), CellTiter-Blue; higher = more viable cells (about 100 = DMSO control)
Protocol: (§3)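 DSRT, CellTiter-Blue viability, 72 h incubation. Signal is normalised to DMSO and benzethonium chloride controls. Value is the normalised response at dose 6.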

DU-4475 [10] = test: as above
Protocol: as §3

CAL-148 [11] = test: as above
Protocol: as §3

CAL-85-1 [12] = test: as above
Protocol: as §3

HDQ-P1 [13] = test: as above; remark: listed apart in the source
Protocol: as §3

CAL-51 [14] = test: as above; remark: listed apart in the source
Protocol: as §3

SMILES	normalised viability (HDQ-P1 [1]; 300 nM) [%]	normalised viability (CAL-51 [2]; 300 nM) [%]	drug sensitivity score (MDA-MB-436)	drug sensitivity score (CAL-120)	drug sensitivity score (MFM-223)	drug sensitivity score (MDA-MB-453 [3])	drug sensitivity score (MCF-10A)	drug sensitivity score (MDA-MB-468)	drug sensitivity score (BT-474)	drug sensitivity score (BT-549)	drug sensitivity score (DU-4475 [4])	drug sensitivity score (HCC1937)	drug sensitivity score (Hs578T)	drug sensitivity score (HCC1599)	drug sensitivity score (CAL-148 [5])	drug sensitivity score (CAL-85-1 [6])	drug sensitivity score (MDA-MB-231)	drug sensitivity score (HCC1143)	drug sensitivity score (HDQ-P1 [7])	drug sensitivity score (CAL-51 [8])	normalised viability (MDA-MB-453 [9]; 30 nM) [%]	normalised viability (DU-4475 [10]; 30 nM) [%]	normalised viability (CAL-148 [11]; 30 nM) [%]	normalised viability (CAL-85-1 [12]; 30 nM) [%]	normalised viability (HDQ-P1 [13]; 30 nM) [%]	normalised viability (CAL-51 [14]; 30 nM) [%]	normalised viability (HDQ-P1 [1]; 3000 nM)	normalised viability (CAL-51 [2]; 3000 nM)	normalised viability (MDA-MB-453 [9]; 300 nM)	normalised viability (DU-4475 [10]; 300 nM)	normalised viability (CAL-148 [11]; 300 nM)	normalised viability (CAL-85-1 [12]; 300 nM)	normalised viability (HDQ-P1 [13]; 300 nM)	normalised viability (CAL-51 [14]; 300 nM)
CC[C@@H]1C(=O)N(C)c2cnc(Nc3ccc(C(=O)NC4CCN(C)CC4)cc3OC)nc2N1C1CCCC1 [BI 2536]	65.2	10.6	0	1.97	6.01	0	10.3	0	0	0	0	0	4.87	0	0	10.3	9.92	0	0	16.7	28.4	18.1	25.5	45.3	43.6	25.8								
C=CC(=O)Nc1cc2c(Nc3ccc(F)c(Cl)c3)ncnc2cc1OCCCN1CCOCC1 [Canertinib]			0	2.34	2.12	0	8.86	5.52	3.65	0.986	0	0	6.15	0	0	8.99	3.46	0	3.34	5.83							27.5%	79.9%	48.6%	93.3%	81.2%	54%	32.4%	104%
O=C(O)C1(C(=O)O)CCC1.[NH2-].[NH2-].[Pt+2] [Carboplatin]			0	0	0	0	0	0	0	1.73	0	0	0	0	0	0	0	0	0	0							86%	115%	107%	87.6%	106%	86.1%	87.6%	106%
COc1cc2c(Oc3ccc4[nH]c(C)cc4c3F)ncnc2cc1OCCCN1CCCC1 [Cediranib]	88.3	90.7	0	0	0	0	0	0	0	0	0	0	0	0	0	1.23	0	0	0	0	75.9	95	103	90.4	72.9	86								
Nc1ncn([C@H]2C[C@H](O)[C@@H](CO)O2)c(=O)n1 [Decitabine]			0	0	0	0.571	0	0.872	0	0	0	0	0	0	0	2.72	0	0	0	7.63							88.6% and 93.3%	98.4% and 79.8%	95.2% and 101%	86% and 85.5%	97.3% and 76%	81.5% and 90.7%	65.3% and 81.8%	99% and 92.1%
Nc1ccccc1NC(=O)c1ccc(CNC(=O)OCc2cccnc2)cc1 [Entinostat]			4.39	0	1.09	0	0	11.1	0	0	0	1.35	0	0	1.86	4.07	1.91	0	0	7.91							80%	108%	103%	97.9%	86.9%	109%	72%	114%
Nc1nc(F)nc2c1ncn2[C@@H]1O[C@H](CO)[C@@H](O)[C@@H]1O [Fludarabine]			0	0		0	0	0	0	0	0	0	0	0	0	0	0	0	0	0							108%	104%	100%	100%	72.2%	90.4%	75.3%	103%
O=C(Cc1ccc(-c2ccc(OCCN3CCOCC3)cc2)cn1)NCc1ccccc1 [KX2-391]			4.73	1.54	13.2	0	15.5	30.1	3.97	0	0	3.38	11.4	3.99	0	17.3	0	0	4.28	20.3							41.6%	11.3%	28.3%	9.43%	20.4%	36.3%	46.6%	13.9%
N#Cc1ccc(C(c2ccc(C#N)cc2)n2cncn2)cc1 [Letrozole]			0	0	0	0	0	4.02	0	0	0	0	0.858	0	0	0	0	0	0	0							94%	111%	100%	81.2%	101%	86.4%	69.4%	104%
O=C(O)C(=O)O.[NH-][C@@H]1CCCC[C@H]1[NH-].[Pt+2] [Oxaliplatin]			0	0	0	0	1.93	0	0	0	0	0	0	0		0	0	0	1	0							102%	118%	98.8%	113%	121%	96.9%	78.4%	95.5%
COc1cc([C@@H]2c3cc4c(cc3[C@@H](O[C@@H]3O[C@@H]5CO[C@@H](c6cccs6)O[C@H]5[C@H](O)[C@H]3O)[C@H]3COC(=O)[C@H]23)OCO4)cc(OC)c1O [Teniposide]			0	4.54	6.4	0		6.45	0	0	4.49	8.06	2.53	3.84	25.1	7.07	10.8	0	7.08	11.8							67.3%	12.6%	87.9%	10.4%	49.2%	82.6%	86.3%	28.1%
COc1cc2nccc(Oc3ccc(NC(=O)Nc4cc(C)on4)c(Cl)c3)c2cc1OC [Tivozanib]			0	0	0	0	0	0	0	0	0	0	3.86	0	0	0	0	0	0								67.6%	80%	95.8%	109%	95.9%	102%	61.2%	89.8%
CC(=O)Nc1cccc(-n2c(=O)n(C3CC3)c(=O)c3c(Nc4ccc(I)cc4F)n(C)c(=O)c(C)c32)c1 [Trametinib]			0	1.74	0	0	4.18	0	0	0	7.36	0	0	0	0	7.34	12	0	0	0														
